We go through 13 molecules from patent US20100029669A1, “3-(SUBSTITUTED ETHYL)-RIFAMYCIN DERIVATIVES USEFUL AS ANTIMICROBIAL AGENTS” (priority 2008, published 2010).

The term MIC denotes the lowest concentration that inhibits growth of the organism.

Experiment [1] relates to Methicillin-resistant Staphylococcus aureus OC 2878. Nature of the experiment: MIC, microdilution broth method (NCCLS), strain D. The settings on record: read-out: MIC D Strain. A general note: Broth dilution looks for growth in wells or tubes with falling amounts of substance.
Method: (§1) The in vitro antimicrobial activity of representative compounds of the present invention was determined by the microdilution broth method following the test method from the National Committee for Clinical Laboratory Standards (NCCLS).
(§2) In this method two-fold serial dilutions of drug in cation adjusted Mueller-Hinton broth were added to wells in microdilution trays. The test organisms were prepared by adjusting the turbidity of actively growing broth cultures so that the final concentration of test organism after it is added to the wells was approximately 5×10^4 CFU/well. Following inoculation of the microdilution trays, the trays were incubated at 35° C. for 16-20 hours and then read. The amount of growth in the wells containing the test compound was compared with the amount of growth in the growth-control wells (no test compound) used in each tray.
Experiment [2] deals with Staphylococcus aureus OC4172. Nature of the experiment: MIC, microdilution broth method (NCCLS), strain C. In kind it is cell-based. The settings on record: cation adjusted Mueller-Hinton broth, 35° C., 16-20 hours.
The test system of experiment [3] is Enterococcus faecium OC 3312 vancomycin resistant. The experiment in a line: MIC, microdilution broth method (NCCLS), strain A. The settings on record: read-out: MIC A Strain.
Method: as §1, §2
In experiment [4] the test system is Methicillin-resistant Staphylococcus aureus OC 3726 COL. The experiment in a line: MIC, microdilution broth method (NCCLS), strain B. The settings on record: read-out: MIC B Strain.
Method: as §1, §2

The structures appear in SMILES notation. Converted amounts (≈) assume the structure as drawn. Some results are limits rather than exact numbers.

Take `CO[C@H]1/C=C/O[C@@]2(C)Oc3c(C)c(O)c4c(O)c(c(CCNCc5ccc(-c6cccnn6)cc5)c(O)c4c3C2=O)NC(=O)/C(C)=C\C=C\[C@H](C)[C@H](O)[C@@H](C)[C@@H](O)[C@@H](C)[C@H](OC(C)=O)[C@@H]1C` [Compound 15]: the MIC was found to be 0.25 mg/L (≈ 0.275 µM) in experiment [1], 0.25 mg/L (≈ 0.275 µM) in experiment [2], 1 mg/L (≈ 1.1 µM) in experiment [3] and 0.5 mg/L (≈ 0.55 µM) in experiment [4].

On to `CO[C@H]1/C=C/O[C@@]2(C)Oc3c(C)c(O)c4c(c3C2=O)C(=O)C(C(C[N+](=O)[O-])C[N+](=O)[O-])=C(NC(=O)/C(C)=C\C=C\[C@H](C)[C@H](O)[C@@H](C)[C@@H](O)[C@@H](C)[C@H](OC(C)=O)[C@@H]1C)C4=O` [Compound 4], for which the MIC in experiment [1] was 0.5 mg/L (≈ 0.604 µM); in experiment [2] it was 0.5 mg/L (≈ 0.604 µM); in experiment [3], 2 mg/L (≈ 2.42 µM); in experiment [4], 1 mg/L (≈ 1.21 µM).

In the case of `CO[C@H]1/C=C/O[C@@]2(C)Oc3c(C)c(O)c4c(O)c(c(CCNCc5ccc(N6CCN(C)CC6)cc5)c(O)c4c3C2=O)NC(=O)/C(C)=C\C=C\[C@H](C)[C@H](O)[C@@H](C)[C@@H](O)[C@@H](C)[C@H](OC(C)=O)[C@@H]1C` [Compound 12], the MIC in experiment [1] is no more than 0.03 mg/L; in experiment [2] it was no more than 0.03 mg/L; in experiment [3] it was 0.5 mg/L (≈ 0.538 µM); in experiment [4] it was no more than 0.03 mg/L.

Consider `CO[C@H]1/C=C/O[C@@]2(C)Oc3c(C)c(O)c4c(O)c(c(C(C[N+](=O)[O-])C[N+](=O)[O-])c(O)c4c3C2=O)NC(=O)/C(C)=C\C=C\[C@H](C)[C@H](O)[C@@H](C)[C@@H](O)[C@@H](C)[C@H](OC(C)=O)[C@@H]1C` [Compound 3], for which the MIC was found to be 0.25 mg/L (≈ 0.301 µM) in experiment [1], 0.25 mg/L (≈ 0.301 µM) in experiment [2], 4 mg/L (≈ 4.82 µM) in experiment [3] and 0.5 mg/L (≈ 0.603 µM) in experiment [4].

Turning to `CO[C@H]1/C=C/O[C@@]2(C)Oc3c(C)c(O)c4c(O)c(c(CC[N+](=O)[O-])c(O)c4c3C2=O)NC(=O)/C(C)=C\C=C\[C@H](C)[C@H](O)[C@@H](C)[C@@H](O)[C@@H](C)[C@H](OC(C)=O)[C@@H]1C` [Compound 2], the MIC was no more than 0.03 mg/L in experiment [1], no more than 0.03 mg/L in experiment [2], 1 mg/L (≈ 1.3 µM) in experiment [3] and no more than 0.03 mg/L in experiment [4].

Regarding `CO[C@H]1/C=C/O[C@@]2(C)Oc3c(C)c(O)c4c(O)c(c(CCNCc5ccccc5)c(O)c4c3C2=O)NC(=O)/C(C)=C\C=C\[C@H](C)[C@H](O)[C@@H](C)[C@@H](O)[C@@H](C)[C@H](OC(C)=O)[C@@H]1C` [Compound 9], the MIC in experiment [1] was no more than 0.03 mg/L; in experiment [2] it was no more than 0.03 mg/L; in experiment [3], 0.12 mg/L (≈ 0.144 µM); in experiment [4], no more than 0.03 mg/L.

Turning to `CO[C@H]1/C=C/O[C@@]2(C)Oc3c(C)c(O)c4c(c3C2=O)C(=O)C(CC[N+](=O)[O-])=C(NC(=O)/C(C)=C\C=C\[C@H](C)[C@H](O)[C@@H](C)[C@@H](O)[C@@H](C)[C@H](OC(C)=O)[C@@H]1C)C4=O` [Compound 1], the MIC is no more than 0.03 mg/L in experiment [1], no more than 0.03 mg/L in experiment [2], 0.12 mg/L (≈ 0.156 µM) in experiment [3] and no more than 0.03 mg/L in experiment [4].

On to `CO[C@H]1/C=C/O[C@@]2(C)Oc3c(C)c(O)c4c(O)c(c(CCNCc5ccc(-c6ncccn6)cc5)c(O)c4c3C2=O)NC(=O)/C(C)=C\C=C\[C@H](C)[C@H](O)[C@@H](C)[C@@H](O)[C@@H](C)[C@H](OC(C)=O)[C@@H]1C` [Compound 14], for which the MIC was 0.5 mg/L (≈ 0.55 µM) in experiment [1], 0.5 mg/L (≈ 0.55 µM) in experiment [2], 1 mg/L (≈ 1.1 µM) in experiment [3] and 1 mg/L (≈ 1.1 µM) in experiment [4].

Regarding `CO[C@H]1/C=C/O[C@@]2(C)Oc3c(C)c(O)c4c(O)c(c(CCN(C)C)c(O)c4c3C2=O)NC(=O)/C(C)=C\C=C\[C@H](C)[C@H](O)[C@@H](C)[C@@H](O)[C@@H](C)[C@H](OC(C)=O)[C@@H]1C` [Compound 10], the MIC in experiment [1] was 0.06 mg/L (≈ 0.078 µM); in experiment [2], no more than 0.03 mg/L; in experiment [3], 0.25 mg/L (≈ 0.325 µM); in experiment [4] it was no more than 0.03 mg/L.

With `CO[C@H]1/C=C/O[C@@]2(C)Oc3c(C)c(O)c4c(O)c(c(C(CN)CN)c(O)c4c3C2=O)NC(=O)/C(C)=C\C=C\[C@H](C)[C@H](O)[C@@H](C)[C@@H](O)[C@@H](C)[C@H](OC(C)=O)[C@@H]1C` [Compound 8], the MIC in experiment [1] was 1 mg/L (≈ 1.3 µM); in experiment [2] it was 0.25 mg/L (≈ 0.325 µM); in experiment [3] it was 1 mg/L (≈ 1.3 µM); in experiment [4], 0.5 mg/L (≈ 0.649 µM).

As to `CO[C@H]1/C=C/O[C@@]2(C)Oc3c(C)c(O)c4c(O)c(c([C@H](O)C[N+](=O)[O-])c(O)c4c3C2=O)NC(=O)/C(C)=C\C=C\[C@H](C)[C@H](O)[C@@H](C)[C@@H](O)[C@@H](C)[C@H](OC(C)=O)[C@@H]1C` (single isomer, unassigned) [Compound 5], the MIC in experiment [1], in experiment [2], in experiment [3] and in experiment [4] was 8 mg/L (≈ 10.2 µM) throughout.

For the molecule `CO[C@H]1/C=C/O[C@@]2(C)Oc3c(C)c(O)c4c(O)c(c(CCNCc5ccc(-n6cccn6)cc5)c(O)c4c3C2=O)NC(=O)/C(C)=C\C=C\[C@H](C)[C@H](O)[C@@H](C)[C@@H](O)[C@@H](C)[C@H](OC(C)=O)[C@@H]1C` [Compound 13], the MIC in experiment [1] stood at 0.12 mg/L (≈ 0.134 µM); in experiment [2], 0.12 mg/L (≈ 0.134 µM); in experiment [3] it was 0.5 mg/L (≈ 0.557 µM); in experiment [4] it was 0.12 mg/L (≈ 0.134 µM).

Take `CO[C@H]1/C=C/O[C@@]2(C)Oc3c(C)c(O)c4c(O)c(c(CCN5CCCCC5)c(O)c4c3C2=O)NC(=O)/C(C)=C\C=C\[C@H](C)[C@H](O)[C@@H](C)[C@@H](O)[C@@H](C)[C@H](OC(C)=O)[C@@H]1C` [Compound 11]: the MIC was 0.06 mg/L (≈ 0.0742 µM) in experiment [1], no more than 0.03 mg/L in experiment [2], 0.25 mg/L (≈ 0.309 µM) in experiment [3] and 0.06 mg/L (≈ 0.0742 µM) in experiment [4].
